Reference: ChEMBL document CHEMBL4296183, “CO-ADD screening of NIH NCI Natural Product Set III” (2020)
Values after ≈ are worked out from the molar mass of the structure shown. Structures can show the parent of a compound that is named as a salt.

Assays:
HEK293 = experiment: cells; format: functional; details: Homo sapiens, ATCC CRL1573, HEK293; ASSAY_TEST Inhibition of Cell Viability; detection method Resazurin; Fluorescence (ex560/em590); MEDIA DMEM with 10% FBS; plate type 384well; TC; CORNING #3712; time 18 hr
Staphylococcus aureus = experiment: microbe, parasite or virus in culture; details: ATCC 43300, 18 h, ASSAY_TEST Inhibition of Bacterial Growth, detection method Absorption (OD600), MEDIA CAMHB, plate type 384well, NBS, CORNING #3640
Description: Antibacterial activity against Staphylococcus aureus MRSA ATCC 43300 (CO-ADD:GP_020); MIC in CAMBH media, using NBS plates, by OD(600)

Escherichia coli = experiment: microbe, parasite or virus in culture; details: ATCC 25922, 18 h, ASSAY_TEST Inhibition of Bacterial Growth, detection method Absorption (OD600), MEDIA CAMHB, plate type 384well, NBS, CORNING #3640
Description: Antibacterial activity against Escherichia coli ATCC 25922 (CO-ADD:GN_001); MIC in CAMBH media using NBS plates, by OD(600)

Klebsiella pneumoniae = experiment: microbe, parasite or virus in culture; details: ATCC 700603, 18 h, ASSAY_TEST Inhibition of Bacterial Growth, detection method Absorption (OD600), MEDIA CAMHB, plate type 384well, NBS, CORNING #3640
Description: Antibacterial activity against Klebsiella pneumoniae MDR ATCC 70063 (CO-ADD:GN_003); MIC in CAMBH media using NBS plates, by OD(600)

Pseudomonas aeruginosa = experiment: microbe, parasite or virus in culture; details: ATCC 27853, 18 h, ASSAY_TEST Inhibition of Bacterial Growth, detection method Absorption (OD600), MEDIA CAMHB, plate type 384well, NBS, CORNING #3640
Description: Antibacterial activity against Pseudomonas aeruginosa ATCC 27853 (CO-ADD:GN_042); MIC in CAMBH media using NBS plates, by OD(600)

Acinetobacter baumannii = experiment: microbe, parasite or virus in culture; details: ATCC 19606, 18 h, ASSAY_TEST Inhibition of Bacterial Growth, detection method Absorption (OD600), MEDIA CAMHB, plate type 384well, NBS, CORNING #3640
Description: Antibacterial activity against Acinetobacter baumannii ATCC 19606 (CO-ADD:GN_034); MIC in CAMBH media using NBS plates, by OD600

Candida albicans = experiment: microbe, parasite or virus in culture; details: ATCC 90028, ASSAY_TEST Inhibition of Fungal Growth, detection method Absorption (OD530), plate type 384well, NBS, CORNING #3640
Description: Antifungal activity against Candida albicans ATCC 90028 (CO-ADD:FG_001); MIC in YNB media using NBS plates, by OD630

Description for Cryptococcus neoformans: Antifungal activity against Cryptococcus neoformans H99 ATCC 208821 (CO-ADD:FG_002); MIC in YNB media using NBS plates, by Resazurin OD(600-570)

| Compound | CC50 (HEK293) | MIC (Cryptococcus neoformans) | MIC (Staphylococcus aureus) | MIC (Escherichia coli) | MIC (Klebsiella pneumoniae) | MIC (Pseudomonas aeruginosa) | MIC (Acinetobacter baumannii) | MIC (Candida albicans) |
| --- | --- | --- | --- | --- | --- | --- | --- | --- |
| N#C[C@H](OC1OC(COC2OC(CO)C(O)C(O)C2O)C(O)C(O)C1O)c1ccccc1 (stereo partly specified) | > 10 µM | > 10 µM | > 10 µM | > 10 µM | > 10 µM | > 10 µM | > 10 µM | > 10 µM |
| CC1/C=C/C=C/CC/C=C/C=C/C=C/C=C/C(OC2OC(C)C(O)C(N)C2O)CC2OC(CC(O)C(O)CCC(O)CC(O)CC(O)CC(=O)OC(C)C(C)C1O)CC(O)C2C(=O)O (stereo unspecified) | > 10 µM | 5 µM (≈ 4.55 µg/mL) | > 10 µM | > 10 µM | > 10 µM | > 10 µM | > 10 µM | 5 µM (≈ 4.55 µg/mL) |
| Cc1c2ccncc2c(C)c2c1[nH]c1ccccc12 [ELLIPTECINE] | 1.13 µM | 10 µM (≈ 2.46 µg/mL) | 10 µM (≈ 2.46 µg/mL) | > 10 µM | > 10 µM | > 10 µM | > 10 µM | > 10 µM |
| COc1cc2oc3cc(=O)cc4oc(-c5ccccc5)cc(c2c2c1CCC(c1ccccc1)O2)c43 (stereo unspecified) | > 10 µM | > 10 µM | > 10 µM | > 10 µM | > 10 µM | > 10 µM | > 10 µM | > 10 µM |
| COC1CC(CC2CCC(C)C(C(C)C(=O)O)O2)OC2(OC(C)(C3CCC(C)(C4OC(C5OC(O)(CO)C(C)CC5C)CC4C)O3)CC2C)C1C (stereo unspecified) | > 10 µM | > 10 µM | 0.156 µM (≈ 0.113 µg/mL) | > 10 µM | > 10 µM | > 10 µM | > 10 µM | 10 µM (≈ 7.25 µg/mL) |
| C=C(C)[C@H]1Cc2c(ccc3c2O[C@@H]2COc4cc(OC)c(OC)cc4[C@@H]2C3=O)O1 [ROTENONE] | > 10 µM | 10 µM (≈ 3.94 µg/mL) | > 10 µM | > 10 µM | > 10 µM | > 10 µM | > 10 µM | > 10 µM |
| CC1(C)CCC2=C(O1)c1ccccc1C(=O)C2=O [LAPACHONE] | > 10 µM | > 10 µM | > 10 µM | > 10 µM | > 10 µM | > 10 µM | > 10 µM | > 10 µM |
| CC[C@H](C)c1occ2c(O)c(C(=O)O)c(=O)cc-2c1C | > 10 µM | > 10 µM | > 10 µM | > 10 µM | > 10 µM | > 10 µM | > 10 µM | > 10 µM |
| O=c1ccc2nc3ccc(O)cc3oc-2c1 | > 10 µM | > 10 µM | > 10 µM | > 10 µM | > 10 µM | > 10 µM | > 10 µM | > 10 µM |
| C=C(NC(=O)C(=C)NC(=O)c1csc(C2=NC3c4csc(n4)C4NC(=O)c5csc(n5)C(C(C)(O)C(C)O)NC(=O)C5CSC(=N5)/C(=C/C)NC(=O)C(C(C)O)NC(=O)c5csc(n5)C3(CC2)NC(=O)C(C)NC(=O)C(=C)NC(=O)C(=C)NC(=O)C(C(C)C)NC2C=Cc3c(C(C)O)cc(nc3C2O)C(=O)OC4C)n1)C(N)=O (stereo unspecified) | > 10 µM | > 10 µM | ≤ 0.0781 µM | > 10 µM | > 10 µM | > 10 µM | > 10 µM | > 10 µM |
| N#Cc1cn(C2OC(CO)C(O)C2O)c2ncnc(N)c12 (stereo unspecified) | > 10 µM | > 10 µM | > 10 µM | > 10 µM | > 10 µM | > 10 µM | > 10 µM | 0.312 µM (≈ 0.091 µg/mL) |
| CO[C@H]1C[C@@H]2CC[C@@H](C)[C@@](O)(O2)C(=O)C(=O)N2CCCC[C@H]2C(=O)O[C@H]([C@H](C)C[C@@H]2CC[C@@H](O)[C@H](OC)C2)CC(=O)[C@H](C)/C=C(\C)[C@@H](O)[C@@H](OC)C(=O)[C@H](C)C[C@H](C)/C=C/C=C/C=C/1C [SIROLIMUS] | > 10 µM | 0.156 µM (≈ 0.143 µg/mL) | > 10 µM | > 10 µM | > 10 µM | > 10 µM | > 10 µM | ≤ 0.0781 µM |
| COc1cccc2c1C(=O)c1c(O)c3c(c(O)c1C2=O)C[C@@](O)(C(C)=O)C[C@@H]3OC1CC(N)C(O)C(C)O1 (stereo partly specified) | 0.613 µM | > 10 µM | 5 µM (≈ 2.64 µg/mL) | > 10 µM | > 10 µM | > 10 µM | > 10 µM | > 10 µM |
| CCC(C(=O)C(C)C(O)C(C)CCc1ccc(C)c(O)c1C(=O)O)C1OC(CC)(C2CCC(O)(CC)C(C)O2)CC1C (stereo unspecified) | > 10 µM | > 10 µM | 0.312 µM (≈ 0.185 µg/mL) | > 10 µM | > 10 µM | > 10 µM | > 10 µM | > 10 µM |
| C[C@H](N)C(=O)N[C@@H]1[C@H]2C(=C(O)C[C@@H](O)[C@@H]2O)C(=O)O[C@]1(C)C(Cl)Cl [BACTOBOLIN] | 0.396 µM | > 10 µM | 1.25 µM (≈ 0.479 µg/mL) | 5 µM (≈ 1.92 µg/mL) | > 10 µM | > 10 µM | > 10 µM | > 10 µM |
| COc1cc2cc(c1Cl)N(C)C(=O)C[C@H](OC(=O)[C@H](C)N(C)C(C)=O)[C@]1(C)O[C@H]1[C@H](C)[C@@H]1C[C@@](O)(NC(=O)O1)[C@H](OC)/C=C/C=C(\C)C2 [MAYTANSINE] | > 10 µM | 0.625 µM (≈ 0.433 µg/mL) | > 10 µM | > 10 µM | > 10 µM | > 10 µM | > 10 µM | > 10 µM |
| CC1Oc2cc3c(-c4c(O)cc(O)c5c(O)c6c(cc45)OC(C)C(C)C6=O)c(O)cc(O)c3c(O)c2C(=O)C1C (stereo unspecified) | 5.78 µM | > 10 µM | 5 µM (≈ 2.73 µg/mL) | > 10 µM | > 10 µM | > 10 µM | > 10 µM | > 10 µM |
| CC1COC2C3=C(C(=O)C=CC3=O)C3OC(=O)C4CC5CCC1C5C2C43 (stereo unspecified) | 1.18 µM |  |  |  |  |  |  |  |
| COC1/C=C/O[C@@]2(C)Oc3c(C)c(O)c4c(O)c(cc(O)c4c3C2=O)NC(=O)/C(C)=C\C=C\[C@H](C)C(O)[C@@H](C)[C@@H](O)[C@@H](C)[C@H](OC(C)=O)[C@@H]1C (stereo partly specified) | > 10 µM | > 10 µM | ≤ 0.0781 µM | > 10 µM | > 10 µM | > 10 µM | > 10 µM | > 10 µM |
| COC[C@H]1OC(=O)c2coc3c2[C@@]1(C)C1=C(C3=O)[C@@H]2CCC(=O)[C@@]2(C)C[C@H]1OC(C)=O [WORTMANNIN] | 7.83 µM | 5 µM (≈ 2.14 µg/mL) | > 10 µM | > 10 µM | > 10 µM | > 10 µM | > 10 µM | 0.625 µM (≈ 0.268 µg/mL) |
| CN(C)[C@@H]1C(O)=C(C(N)=O)C(=O)[C@@]2(O)C(O)=C3C(=O)c4c(O)ccc(Cl)c4[C@@](C)(O)[C@H]3C[C@@H]12 [CHLORTETRACYCLINE HYDROCHLORIDE] | > 10 µM | > 10 µM | 1.25 µM | 5 µM | > 10 µM | 2.5 µM | > 10 µM | > 10 µM |
| CC1=C2C(=CC(C)(C)[C@@H]2O)C(=O)[C@](C)(O)C12CC2 [ILLUDIN M] | 0.114 µM | > 10 µM | > 10 µM | > 10 µM | > 10 µM | > 10 µM | > 10 µM | > 10 µM |
| CC1OC(CC(=O)O)CC2=C1C(=O)c1c(O)cccc1C2=O (stereo unspecified) [NANAOMYCIN] | 0.188 µM | 1.25 µM (≈ 0.378 µg/mL) | 0.312 µM (≈ 0.0945 µg/mL) | > 10 µM | > 10 µM | > 10 µM | > 10 µM | 0.625 µM (≈ 0.189 µg/mL) |
| CO[C@H](/C(C)=C/C=C/C(C)=C/c1coc(C)n1)[C@H](C)[C@H]1C[C@@H](O)[C@@]2(C)O[C@H]2/C=C/[C@@H](C)[C@@H]2C[C@@H](CC(=O)O2)C[C@H]2O[C@@H]2C(=O)O1 | > 10 µM | 1.25 µM (≈ 0.782 µg/mL) | > 10 µM | > 10 µM | > 10 µM | > 10 µM | > 10 µM | > 10 µM |
| CSC1SCC2C(=O)N(C)C(C(C)C)C(=O)OCC(NC(=O)c3cnc4ccccc4n3)C(=O)NC(C)C(=O)N(C)C1C(=O)N(C)C(C(C)C)C(=O)OCC(NC(=O)c1cnc3ccccc3n1)C(=O)NC(C)C(=O)N2C (stereo unspecified) | > 10 µM | 2.5 µM (≈ 2.75 µg/mL) | ≤ 0.0781 µM | 2.5 µM (≈ 2.75 µg/mL) | > 10 µM | 1.25 µM (≈ 1.38 µg/mL) | > 10 µM | > 10 µM |
| COC1=C2C[C@@H](C)C[C@@H](OC)[C@@H](O)[C@H](C)/C=C(\C)[C@@H](OC(N)=O)[C@H](OC)/C=C\C=C(/C)C(=O)NC(=CC1=O)C2=O | > 10 µM | > 10 µM | > 10 µM | > 10 µM | > 10 µM | > 10 µM | > 10 µM | > 10 µM |
